Source: patent publication US9226495B2, “Disinfection aerosol, method of use and manufacture” (SABAN VENTURES PTY LIMITED, priority 2009, dated 2016)

Assays:
[1] = Hydrogen peroxide destruction in bulk solution in a tube, temperature rise as proxy; type: physicochemical; settings: antagonist concentrations of below 1×10^−4 M; 0.02M sodium hydroxide; FIG. 3
Source text: Screening was initially conducted using bulk solutions combined in a tube, rather than as aerosols.
During destruction of hydrogen peroxide by Mn(II) or permanganate in tubes the temperature of the solution rather often reached boiling point. This should not happen when the biocide is sprayed as a mist due to absolutely different heat exchange conditions in bulk solution and in a thin layer of biocide. […] By lead time is meant the lag or induction period before the reaction velocity increases steeply.

[2] = according OH&S requirements; of Mn; cited from earlier work

Structure (SMILES)	time to peak rate of reaction with 35% peroxide [1]	permissible exposure limit [2] [mg/m^3]
[K+].[O]=[Mn](=[O])(=[O])[O-] [KMnO4]	about 10 mins	
[Mn] [Mn]		5
